Reference: patent US20070213339A1 (Bayer Pharmaceuticals Corporation, priority 2004, published 2007)

test system: Colo205 human colon carcinoma cell line; experiment: In vitro tumor cell proliferation assay (MTS, CellTiter 96 Aqueous One Solution); format: cell-based; conditions: COLO 205, Colo205 cells, 72 hours compound exposure, MTS absorbance at 490 nm, read-out: IC50 (concentration of test compound required to inhibit proliferation of 50% of the cells)
Summary of the method: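 Proliferation measured as MTS tetrazolium reduction (490 nm) after 72 h compound exposure at 37 °C. Cells plated at 2000 per well in serum-supplemented RPMI-1640; duplicate 5-point dilutions topping out at 10-20 μM. Percent inhibition versus untreated and cell-free wells, IC50 derived by linear regression.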

| SMILES | IC50 |
| --- | --- |
| CON(C)Cc1ccc(-n2cc(C(=O)O)c(=O)c3cc(F)c(N4CCN(c5ncccn5)CC4)c(Cl)c32)cc1 [Example 50, 8-chloro-6-fluoro-1-(4-{[methoxy(methyl)-amino]methyl}phenyl)-4-oxo-7-(4-pyrimidin-2-ylpiperazin-1-yl)-1,4-dihydroquinoline-3-carboxylic acid] | 2000 to 20000 nM |
| CCN(CC)Cc1ccc(-n2cc(C(=O)O)c(=O)c3cc(F)c(N4CCN(c5ncccn5)CC4)c(OC(F)(F)Cl)c32)cc1 [Example 160] | 500 to 2000 nM |
| CON(C)Cc1ccc(-n2cc(C(=O)O)c(=O)c3cc(F)c(N4CCN(c5ccc(F)cc5)CC4)c(Cl)c32)cc1 [Example 51, 8-chloro-6-fluoro-7-[4-(4-fluorophenyl)-piperazin-1-yl]-1-(4-{[methoxy(methyl)amino]methyl}phenyl)-4-oxo-1,4-dihydroquinoline-3-carboxylic acid] | 2000 to 20000 nM |
| COc1c(N2CCN(c3ccc(F)cc3F)CC2)c(F)cc2c(=O)c(C(=O)O)cn(-c3ccc(CN4CCCC4)cc3)c12 [Example 76, 7-[4-(2,4-difluorophenyl)piperazin-1-yl]-6-fluoro-8-methoxy-4-oxo-1-[4-(pyrrolidin-1-ylmethyl)phenyl]-1,4-dihydroquinoline-3-carboxylic acid] | 500 to 2000 nM |
| COc1ccccc1N1CCN(c2c(F)cc3c(=O)c(C(=O)O)cn(-c4ccc(CN5CCCC5)cc4)c3c2OC)CC1 [Example 83, 6-fluoro-8-methoxy-7-[4-(2-methoxyphenyl)-piperazin-1-yl]-4-oxo-1-[4-(pyrrolidin-1-ylmethyl)phenyl]-1,4-dihydroquinoline-3-carboxylic acid] | 500 to 2000 nM |
| O=C(O)c1cn(-c2cccc(CN3CCCCC3)c2)c2c(OC(F)(F)F)c(N3CCN(c4ncccn4)CC3)c(F)cc2c1=O [Example 143, 6-fluoro-4-oxo-1-[3-(piperidin-1-yl-methyl)phenyl]-7-(4-pyrimidin-2-ylpiperazin-1-yl)-8-(trifluoromethoxy)-1,4-dihydroquinoline-3-carboxylic acid] | 500 to 2000 nM |
| O=C(O)c1cn(-c2cccc(CN3CCCCC3)c2)c2c(OC(F)(F)F)c(N3CCN(c4ccc(F)cc4F)CC3)c(F)cc2c1=O [Example 142, 7-[4-(2,4-difluorophenyl)piperazin-1-yl]-6-fluoro-4-oxo-1-[3-(piperidin-1-ylmethyl)phenyl]-8-(trifluoromethoxy)-1,4-dihydroquinoline-3-carboxylic acid] | 2000 to 20000 nM |
| N#Cc1cc(C(F)(F)F)ccc1N1CCN(c2c(F)cc3c(=O)c(C(=O)O)cn(-c4ccc(CN5CCCC5)cc4)c3c2Cl)CC1 [Example 5, 8-chloro-7-{4-[2-cyano-4-(trifluoromethyl)-phenyl]piperazin-1-yl}-6-fluoro-4-oxo-1-[4 (pyrrolidin-1-ylmethyl)phenyl]-1,4-dihydroquinoline-3-carboxylic acid] | 500 to 2000 nM |
| Cc1ccc(N2CCN(c3c(F)cc4c(=O)c(C(=O)O)cn(-c5ccc(CN6CCCC6)cc5)c4c3OC(F)(F)Cl)CC2)c(C)c1 [Example 150, 8-[chloro(difluoro)methoxy]-7-[4-(2,4-dimethylphenyl)piperazin-1-yl]-6-fluoro-4-oxo-1-[4-(pyrrolidin-1-ylmethyl)phenyl]-1,4-dihydroquinoline-3-carboxylic acid] | 500 to 2000 nM |
| COc1c(N2CCN(c3ccc(C(C)=O)cc3)CC2)c(F)cc2c(=O)c(C(=O)O)cn(-c3ccc(CN4CCCC4)cc3)c12 [Example 78, 7-[4-(4-acetylphenyl)piperazin-1-yl]-6-fluoro-8-methoxy-4-oxo-1-[4-(pyrrolidin-1-ylmethyl)phenyl]-1,4-dihydroquinoline-3-carboxylic acid] | 500 to 2000 nM |
| COc1c(N2CCN(c3ccc(F)cc3F)CC2)c(F)cc2c(=O)c(C(=O)O)cn(-c3ccc(CN(C)C)cc3)c12 [Example 101, 7-[4-(2,4-difluorophenyl)piperazin-1-yl]-1-{4-[(dimethylamino)methyl]phenyl}-6-fluoro-8-methoxy-4-oxo-1,4-dihydroquinoline-3-carboxylic acid] | 500 to 2000 nM |
| O=C(O)c1cn(-c2ccc(CNC3CCCC3)cc2)c2c(OC(F)(F)F)c(N3CCN(c4ccc(F)cc4)CC3)c(F)cc2c1=O [Example 182, 1-(4-cyclopentylaminomethyl-phenyl)-6-fluoro-7-[4-(4-fluorophenyl)-piperazine-1-yl]-4-oxo-8-trifluoromethoxy-1,4-dihydroquinoline-3-carboxylic acid] | < 500 nM |
| N#Cc1ccccc1N1CCN(c2c(F)cc3c(=O)c(C(=O)O)cn(-c4ccc(CN5CC[C@H](O)C5)cc4)c3c2Cl)CC1 [Example 30, 8-chloro-7-[4-(2-cyanophenyl)piperazin-1-yl]-6-fluoro-1-(4-{[(3S)-3-hydroxypyrrolidin-1-yl]methyl}phenyl)-4-oxo-1,4-dihydroquinoline-3-carboxylic acid] | < 500 nM |

Now from value to compound:

| IC50 | SMILES |
| --- | --- |
| < 500 nM | CCN(CC)Cc1ccc(-n2cc(C(=O)O)c(=O)c3cc(F)c(N4CCN(c5ccccn5)CC4)c(OC(F)(F)F)c32)cc1 [Example 132, 1-{4-[(diethylamino)methyl]phenyl}-6-fluoro-4-oxo-7-(4-pyridin-2-ylpiperazin-1-yl)-8-(trifluoromethoxy)-1,4-dihydroquinoline-3-carboxylic acid] |
| < 500 nM | CCN(CC)Cc1ccc(-n2cc(C(=O)O)c(=O)c3cc(F)c(N4CCN(c5ccccc5)CC4)c(OC(F)(F)F)c32)cc1 [Example 138, 1-{4-[(diethylamino)methyl]phenyl}-6-fluoro-4-oxo-7-(4-phenylpiperazin-1-yl)-8-(trifluoromethoxy)-1,4-dihydroquinoline-3-carboxylic acid] |
| < 500 nM | O=C(O)c1cn(-c2ccc(CNC3CC3)cc2)c2c(Cl)c(N3CCN(c4ccccn4)CC3)c(F)cc2c1=O [Example 59, 8-chloro-1-{4-[(cyclopropylamino)-methyl]phenyl}-6-fluoro-4-oxo-7-(4-pyridin-2-ylpiperazin-1-yl)-1,4-dihydroquinoline-3-carboxylic acid] |
| < 500 nM | COc1c(N2CCN(c3ccccn3)CC2)c(F)cc2c(=O)c(C(=O)O)cn(-c3ccc(CN4CCCC4)cc3)c12 [Example 72, 6-fluoro-8-methoxy-4-oxo-7-(4-pyridin-2-ylpiperazin-1-yl)-1-[4-(pyrrolidin-1-ylmethyl)phenyl]-1,4-dihydroquinoline-3-carboxylic acid] |
| < 500 nM | COc1c(N2CCN(c3ccccc3SC)CC2)c(F)cc2c(=O)c(C(=O)O)cn(-c3ccc(CN4CCCC4)cc3)c12 [Example 88, 6-fluoro-8-methoxy-7-{4-[2-(methylthio)phenyl]-piperazin-1-yl}-4-oxo-1-[4-(pyrrolidin-1-ylmethyl)phenyl]-1,4-dihydroquinoline-3-carboxylic acid] |
| < 500 nM | CCN(CC)Cc1ccc(-n2cc(C(=O)O)c(=O)c3cc(F)c(N4CCN(c5cccc(Cl)c5)CC4)c(OC(F)(F)F)c32)cc1 [Example 136, 7-[4-(3-chlorophenyl)piperazin-1-yl]-1-{4-[(diethylamino)methyl]phenyl}-6-fluoro-4-oxo-8-(trifluoromethoxy)-1,4-dihydroquinoline-3-carboxylic acid] |
| < 500 nM | O=C(O)c1cn(-c2ccc(CN3CC[C@H](O)C3)cc2)c2c(Cl)c(N3CCN(c4ccccn4)CC3)c(F)cc2c1=O [Example 28, 8-chloro-6-fluoro-1-(4-{[(3S)-3-hydroxypyrrolidin-1-yl]methyl}phenyl)-4-oxo-7-(4-pyridin-2-ylpiperazin-1-yl)-1,4-dihydroquinoline-3-carboxylic acid] |
| < 500 nM | CCN(CC)Cc1ccc(-n2cc(C(=O)O)c(=O)c3cc(F)c(N4CCN(c5ccccc5OC)CC4)c(OC)c32)cc1 [Example 110, 1-{4-[(diethylamino)methyl]phenyl}-6-fluoro-8-methoxy-7-[4-(2-methoxyphenyl)piperazin-1-yl]-4-oxo-1,4-dihydroquinoline-3-carboxylic acid] |
| < 500 nM | CN(C)Cc1ccc(-n2cc(C(=O)O)c(=O)c3cc(F)c(N4CCN(c5ccc(F)cc5)CC4)c(OC(F)(F)F)c32)cc1 [Example 131, 1-{4-[(dimethylamino)methyl]phenyl}-6-fluoro-7-[4-(4-fluorophenyl)piperazin-1-yl]-4-oxo-8-(trifluoromethoxy)-1,4-dihydroquinoline-3-carboxylic acid] |
| < 500 nM | O=C(O)c1cn(-c2ccc(CN3CCCC3)c(F)c2)c2c(Cl)c(N3CCN(c4ccc(Cl)cc4)CC3)c(F)cc2c1=O [Example 187, 8-chloro-7-[4-(4-chlorophenyl)-piperazine-1-yl]-6-fluoro-1-(3-fluoro-4-pyrrolidin-1-ylmethyl-phenyl)-4-oxo-1,4-dihydroquinoline-3-carboxylic acid] |
| < 500 nM | CCN(C)Cc1ccc(-n2cc(C(=O)O)c(=O)c3cc(F)c(N4CCN(c5ccc(Cl)cc5)CC4)c(OC(F)(F)Cl)c32)cc1 [Example 168, 8-[chloro(difluoro)methoxy]-7-[4-(4-chlorophenyl)piperazin-1-yl]-1-(4-{[ethyl(methyl)amino]methyl}phenyl)-6-fluoro-4-oxo-1,4-dihydroquinoline-3-carboxylic acid] |
| < 500 nM | O=C(O)c1cn(-c2ccc(CNC3CCC3)cc2)c2c(Cl)c(N3CCN(c4ncccn4)CC3)c(F)cc2c1=O [Example 191, 8-chloro-1-(4-cyclobutylaminomethyl-phenyl)-6-fluoro-4-oxo-7-(4-pyrimidin-2-yl-piperazin-1-yl)-1,4-dihydroquinoline-3-carboxylic acid] |
| < 500 nM | N#Cc1ccccc1N1CCN(c2c(F)cc3c(=O)c(C(=O)O)cn(-c4ccc(CN5CCCC5)c(F)c4)c3c2Cl)CC1 [Example 185, 8-chloro-7-[4-(2-cyanophenyl)-piperazine-1-yl]-6-fluoro-1-(3-fluoro-4-pyrrolidin-1-ylmethyl-phenyl)-4-oxo-1,4-dihydroquinoline-3-carboxylic acid] |
